In patent US12459951B2, “Compounds that interact with RAS superfamily proteins for treatment of cancers, inflammatory diseases, rasopathies, and fibrotic disease” (SHY Therapeutics, LLC, priority 2022, dated 2025):

What was measured:
[1] = test system: MiaPaca-2 (expressing KRAS G12C mutant); assay: Proliferation Assay (Cell Viability Assay); assay type: cell-based; conditions: Homo sapiens, MIA PaCa-2; read-out: Proliferation in MiaPaca-2: IC50
In short: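 MiaPaca-2 cells (KRAS G12C) were grown in DMEM-high glucose with 10% FBS, seeded at 2000–5000 cells/well and cultured overnight. Compounds were added at 10 μM final, or as serial dilutions for IC50, in 0.3% DMSO/10% FBS for 2–4 days at 37 °C, 5% CO2. Viability was measured with CellTiter 96 Aqueous One and % inhibition calculated.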

IL6 = assay: IL-6 Quantification Assay (ELISA), LPS-stimulated RAW 264.7; assay type: cell-based; design: inhibition: dose or concentration left out as unconfirmed; conditions: Mus musculus, RAW264.7; read-out: IL-6: % inh.
KRas G12D mutant = assay: Ras GTP Binding Domain Inhibition Assay (Ras Superfamily Assay); conditions: 20 μM compound; for KRas G12D mutant + SOS: % inh.: with SOS; for KRas G12D mutant: % inh.: without SOS
In short: (§1)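 Binding of 100 nM fluorescent GTP (Cy3 or Cy5, 45 min, room temperature) was read after washes from plate-captured His-tagged protein. Beforehand, compounds at 20 μM or in dilution series for IC50 sat 3 h on the protein in Tris buffer pH 7.4 or 7.0 with 1% DMSO, Sos GEF optionally added for the last hour.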

KRas wild type = assay: as above; conditions: 20 μM compound; for KRas wild type + SOS: % inh.: with SOS; for KRas wild type: % inh.: without SOS
In short: as §1

| Compound | IC50 [1] [µM] | KRas G12D mutant + SOS: % inh. (KRas G12D mutant) | KRas G12D mutant: % inh. (KRas G12D mutant) | KRas wild type + SOS: % inh. (KRas wild type) | KRas wild type: % inh. (KRas wild type) | inhibition (IL6) [%] |
| --- | --- | --- | --- | --- | --- | --- |
| COc1ccnc(Nc2nc(-c3nccn3C)nn3cc(-c4ccn(C)n4)c(C(=O)N4CCCC4)c23)c1 [Compound 178, (4-((4-Methoxypyridin-2-yl)amino)-2-(1-methyl-1H-imidazol-2-yl)-6-(1-methyl-1H-pyrazol-3-yl)pyrrolo[2,1-f][1,2,4]triazin-5-yl)(pyrrolidin-1-yl)methanone] | > 1 | D (D = 76-100% inhibition) | D (D = 76-100% inhibition) | D (D = 76-100% inhibition) | D (D = 76-100% inhibition) | 50 to 74 |
| COc1ccnc(Nc2nc(-c3nccn3C)nn3cc(-c4ccn(C)n4)c(C(=O)N4CCOCC4)c23)c1 [Compound 179, (4-((4-Methoxypyridin-2-yl)amino)-2-(1-methyl-1H-imidazol-2-yl)-6-(1-methyl-1H-pyrazol-3-yl)pyrrolo[2,1-f][1,2,4]triazin-5-yl)(morpho-lino)methanone] | > 1 | D (D = 76-100% inhibition) | D (D = 76-100% inhibition) | D (D = 76-100% inhibition) | D (D = 76-100% inhibition) | 50 to 74 |
| Cc1c(-c2ccn(C)n2)cn2nc(-c3nccn3C)nc(Nc3cc(OCCNC(=O)CCCC[C@H]4SC[C@H]5NC(=O)N[C@H]54)ccn3)c12 [Compound 186, N-(2-((2-((5-Methyl-2-(1-methyl-1H-imidazol-2-yl)-6-(1-methyl-1H-pyrazol-3-yl)pyrrolo[2,1-f][1,2,4]triazin-4-yl)amino)pyridin-4-yl)oxy)ethyl)-5-((3aR,4R,6aS)-2-oxohexahydro-1H-thieno[3,4-d]imidazol-4-yl)pentanamide] | > 1 | D (D = 76-100% inhibition) | D (D = 76-100% inhibition) | D (D = 76-100% inhibition) | D (D = 76-100% inhibition) | 1 to 24 |

Now from value to compound, other results behind:

| IC50 [1] [µM] | KRas G12D mutant + SOS: % inh. (KRas G12D mutant) | KRas G12D mutant: % inh. (KRas G12D mutant) | KRas wild type + SOS: % inh. (KRas wild type) | KRas wild type: % inh. (KRas wild type) | Compound | inhibition (IL6) [%] |
| --- | --- | --- | --- | --- | --- | --- |
| 0.51 to 1 | C (C = 50-75% inhibition) | B (B = 26-49% inhibition) | D (D = 76-100% inhibition) | C (C = 50-75% inhibition) | CCNC(=O)c1c(-c2ccn(C)n2)cn2nc(-c3nccn3C)nc(Nc3cc(OC)ccn3)c12 [Compound 173, N-Ethyl-4-((4-methoxypyridin-2-yl)amino)-2-(1-methyl-1H-imidazol-2-yl)-6-(1-methyl-1H-pyrazol-3-yl)pyrrolo[2,1-f][1,2,4]triazine-5-carboxamide] | 75 to 100 |
| 0.15 to 0.5 | B (B = 26-49% inhibition) | B (B = 26-49% inhibition) | B (B = 26-49% inhibition) | B (B = 26-49% inhibition) | COc1ccnc(Nc2nc(-c3nccn3C)nn3cc(-c4ccn(C)n4)c(C(=O)NCC(F)(F)F)c23)c1 [Compound 174, 4-((4-Methoxypyridin-2-yl)amino)-2-(1-methyl-1H-imidazol-2-yl)-6-(1-methyl-1H-pyrazol-3-yl)-N-(2,2,2-trifluoro-ethyl)pyrrolo[2,1-f][1,2,4]triazine-5-carboxamide] | 1 to 24 |
| 0.15 to 0.5 | D (D = 76-100% inhibition) | C (C = 50-75% inhibition) | D (D = 76-100% inhibition) | D (D = 76-100% inhibition) | COc1ccnc(Nc2nc(-c3nccn3C)nn3cc(-c4ccn(C)n4)c(C(=O)NC4CC4)c23)c1 [Compound 175, N-Cyclopropyl-4-((4-methoxypyridin-2-yl)amino)-2-(1-methyl-1H-imidazol-2-yl)-6-(1-methyl-1H-pyrazol-3-yl)pyrrolo[2,1-f][1,2,4]triazine-5-carboxamide] | 75 to 100 |
| 0.51 to 1 | D (D = 76-100% inhibition) | D (D = 76-100% inhibition) | D (D = 76-100% inhibition) | D (D = 76-100% inhibition) | COCCNC(=O)c1c(-c2ccn(C)n2)cn2nc(-c3nccn3C)nc(Nc3cc(OC)ccn3)c12 [Compound 176, N-(2-Methoxyethyl)-4-((4-methoxypyridin-2-yl)amino)-2-(1-methyl-1H-imidazol-2-yl)-6-(1-methyl-1H-pyrazol-3-yl)pyrrolo[2,1-f][1,2,4]triazine-5-carboxamide] | 75 to 100 |
| > 1 | D (D = 76-100% inhibition) | C (C = 50-75% inhibition) | D (D = 76-100% inhibition) | D (D = 76-100% inhibition) | COc1ccnc(Nc2nc(-c3nccn3C)nn3cc(-c4ccn(C)n4)c(C(=O)NCCN(C)C)c23)c1 [Compound 177, N-(2-(Dimethylamino)ethyl)-4-((4-methoxypyridin-2-yl)amino)-2-(1-methyl-1H-imidazol-2-yl)-6-(1-methyl-1H-pyrazol-3-yl)pyrrolo[2,1-f][1,2,4]triazine-5-carboxamide] | 75 to 100 |
